From patent US7811609B2, “Use of metal compounds to treat gastrointestinal infections” (priority 2000, dated 2010)
Values after ≈ are worked out from the molar mass of the structure shown. Read-outs that look alike come from different tables or passages of the source.

Columns and labels:
Helicobacter pylori = assay: MIC against Helicobacter pylori by two fold serial dilution in growth medium; assay type: cell-based; conditions: for Average Selectivity Ratio: (Sum of MIC values against all bacteria except H. pylori ÷ No. of MIC values) ÷ MIC value for H. pylori; for Mean ratio pH 4:pH 7, first value: Strain 1 (Chloride: against first pH 7 value); for MIC, Strain 1 (pH 7): pH 7 (first value where two are given); for Mean ratio pH 4:pH 7, second value: Strain 2 (Chloride: Strain 1 against second pH 7 value)
Procedure: Solutions of metal salts were prepared by dilution of the metal salt, optionally together with the ligand, in ultra-high-purity water. The pH values were adjusted to 7 with concentrated sodium hydroxide. The solutions were γ irradiated for 20 to 30 minutes for sterilisation, and then diluted ten fold in the bacterial growth medium to be used.
A gradient of concentration was obtained by two fold serial dilutions of the medium. The concentrations of metals were analysed by inductively coupled plasma spectrometry. Each dilution was inoculated with the different bacteria to be tested, by multi-point inoculating on the agar media, or suspending in the broth media.
The presence or absence of bacterial growth was reported within the concentration gradient and the minimum concentration of complex in the medium that inhibits totally the bacterial growth (MIC) was determined. The growth on an agar plate was detected by the presence of colonies, and by turbidity in the broth media. The bacteria were identified by the Gram morphology test. Helicobacter pylori growth was also confirmed by biochemical test on the catalase, urease and oxidase activity.

Klebsiella = assay: MIC against Klebsiella; assay type: cell-based; conditions: Table 4
Enterococcus faecalis = assay: MIC against Enterococcus faecalis; assay type: cell-based; conditions: Table 4
Echerichia coli = assay: MIC against Echerichia coli; assay type: cell-based; conditions: Table 4
Staphylococcus aureus = assay: MIC against Staphylococcus aureus; assay type: cell-based; conditions: Table 4
Pseudomonas aeruginosa [1] = assay: MIC against Pseudomonas aeruginosa; assay type: cell-based; conditions: Table 4
Pseudomonas aeruginosa [2] = conditions: extrapolated from survival rates; protein broth then phosphate-buffered saline; Zhao et al 1998; cited from earlier work
E. coli = conditions: extrapolated from survival rates; protein broth then phosphate-buffered saline; Zhao et al 1998; cited from earlier work
[3] = tested on: Staphylococcus (aureus or Oxford Staph); conditions: extrapolated from survival rates; protein broth then phosphate-buffered saline; Zhao et al 1998; cited from earlier work
H. pylori [4] = conditions: cited from earlier work
H. pylori [5] = conditions: H. pylori; cited from earlier work
[6] = STH broth, NCTC 11637 and seven clinical isolates
[7] = pH 4-7: pH of the media changes during the experiment from acidic start

## O=[N+]([O-])[O-].O=[N+]([O-])[O-].O=[N+]([O-])[O-].[Bi+3] [Bi^3+ (bismuth nitrate), bismuth nitrate, reference compound]
Helicobacter pylori; [6]
  MIC: 4 to 8 µg/mL
Helicobacter pylori; Table 2 metals compared with cobalt (II)
  action against H. pylori (in words): active, but only at much higher levels than cobalt (II)

## [Cl][Mn][Cl] [Mn^2+]
Helicobacter pylori
  Average Selectivity Ratio: 1.00
Helicobacter pylori; [6]
  MIC: >32 µg/mL
Helicobacter pylori; Table 4
  MIC, H. pylori: >32/>32
  MIC, H. pylori, first of two values: >32/>32
Klebsiella
  MIC, Klebsiella: > 32 µg/mL
Enterococcus faecalis
  MIC, Ent faecalis: > 32 µg/mL
Echerichia coli
  MIC, E. coli: > 32 µg/mL
Staphylococcus aureus
  MIC, Staphylococcus (aureus or Oxford Staph): > 32 µg/mL
Pseudomonas aeruginosa [1]
  MIC, Pseudomonas aeruginosa: > 32 µg/mL

## O=[N+]([O-])[O-].O=[N+]([O-])[O-].[Co+2] [Co nitrate]
Helicobacter pylori
  Mean ratio pH 4:pH 7, first value: 0.07
  MIC, Strain 1 (pH 4): 0.05
  MIC, Strain 1 (pH 7): 0.69
  Mean ratio pH 4:pH 7, second value: 0.08
  MIC, Strain 2 (pH 4): 0.055
Helicobacter pylori; pH 7
  MIC, Strain 2 (pH 7): >0.69
  MIC, pH 7: 1 mg/l
Helicobacter pylori; [7]
  MIC, pH 4-7: 0.06 mg/l

## [Cl][Cu][Cl] [Cu^2+]
Pseudomonas aeruginosa [2]
  MIC, Pseudomonas aeruginosa (footnote a): 1.75^a
Helicobacter pylori
  Average Selectivity Ratio: 1.02
Helicobacter pylori; [6]
  MIC: 16 to 32 µg/mL
Helicobacter pylori; Table 4
  MIC, H. pylori: 32
  MIC, H. pylori, first of two values: 16
Helicobacter pylori; Table 4, main value
  MIC, H. pylori: 24 µg/mL
Klebsiella
  MIC, Klebsiella: > 32 µg/mL
E. coli
  MIC, E. coli (footnote a): 17.15^a
Enterococcus faecalis
  MIC, Ent faecalis: > 32 µg/mL
Echerichia coli
  MIC, E. coli: > 32 µg/mL
Staphylococcus aureus
  MIC, Staphylococcus (aureus or Oxford Staph): > 32 µg/mL
Pseudomonas aeruginosa [1]
  MIC, Pseudomonas aeruginosa: > 32 µg/mL
[3]
  MIC, Staphylococcus (aureus or Oxford Staph) (footnote a): 17.15^a

## CSCC[C@H](N)C(=O)O [methionine, reference compound]
Helicobacter pylori; weight ratio of 1:5 (cobalt:cysteine and/or methionine)
  effect on the MIC of cobalt against H. pylori: not to affect the MIC of cobalt against H. pylori

## CC[C@H]1OC(=O)[C@H](C)[C@@H](O[C@H]2C[C@@](C)(OC)[C@@H](O)[C@H](C)O2)[C@H](C)[C@@H](O[C@@H]2O[C@H](C)C[C@H](N(C)C)[C@H]2O)[C@](C)(OC)C[C@@H](C)C(=O)[C@H](C)[C@@H](O)[C@]1(C)O [clarithromycin]
H. pylori [4]; in combination with metronidazole
  eradication of infections: about 70%
H. pylori [4]; monotherapy
  eradication of infections: about 34%
H. pylori [4]; triple therapy with a PPI and either metronidazole or amoxycillin
  eradication of infections: 85-95%
H. pylori [5]
  MIC50: 0.03 µg/mL (≈ 0.0401 µM)

## O=C(O)CN(CCN(CC(=O)O)CC(=O)O)CC(=O)O [EDTA, reference compound]
Helicobacter pylori; ligand added to cobalt
  effect of added ligand on the MIC / action of cobalt against H. pylori: inhibited the action of cobalt against H. pylori

## Br [Co bromide]
Helicobacter pylori; Helicobacter pylori, pH 7, read-out: MIC, pH 7
  MIC: 1 to 4 µg/mL
Helicobacter pylori; Helicobacter pylori, pH 4-7: pH of the media changes during the experiment from acidic start, read-out: MIC, pH 4-7
  MIC: 0.06 to 0.125 µg/mL
Helicobacter pylori
  Mean ratio pH 4:pH 7, first value: 0.036
  MIC, Strain 1 (pH 4): <0.04
  MIC, Strain 1 (pH 7): 1.12
  Mean ratio pH 4:pH 7, second value: 0.02
  MIC, Strain 2 (pH 4): 0.09
Helicobacter pylori; pH 7
  MIC, Strain 2 (pH 7): 4.49

## O=P([O-])([O-])[O-].O=P([O-])([O-])[O-].[Co+2].[Co+2].[Co+2] [Co phosphate]
Helicobacter pylori; [7]
  MIC, pH 4-7: 4 mg/l
Helicobacter pylori; pH 7
  MIC, pH 7: 0.8 mg/l

## O=S(=O)([O-])[O-].[O]=[V+2] [V^4+ (vanadyl sulfate), vanadyl sulfate, reference compound]
Helicobacter pylori; [6]
  MIC: >32 µg/mL
